What all share (type): functional, organism-based
For assay [1], the system named is Pseudomonas aeruginosa. In words: Antimicrobial activity against 10^9.4 CFU/ml Pseudomonas aeruginosa PAO1 at 16 mg/L after 0.75 hrs by time-kill assay.
In assay [2] the test system is Pseudomonas aeruginosa. The experiment in a line: Antimicrobial activity against 10^9.4 CFU/ml Pseudomonas aeruginosa PAO1 at 16 mg/L after 24 hrs by time-kill assay.
Assay [3] concerns Pseudomonas aeruginosa. In words: Antimicrobial activity against 10^6 CFU/ml Pseudomonas aeruginosa URMC1 after 24 hrs by time-kill assay.
Assay [4] concerns Pseudomonas aeruginosa. In words: Bactericidal activity against 10^6 CFU/ml Pseudomonas aeruginosa URMC2 at 1 to 4 times MIC up to 1 hr by time-kill assay.
For assay [5], the system named is Pseudomonas aeruginosa. The experiment in a line: Antimicrobial activity against 10^9 CFU/ml Pseudomonas aeruginosa PAO1 after 8 to 12 hrs by time-kill assay.
Assay [6] concerns Pseudomonas aeruginosa. The experiment in a line: Antimicrobial activity against 10^9.4 CFU/ml Pseudomonas aeruginosa PAO1 at 64 mg/L after 0.75 hrs by time-kill assay.
In assay [7] the test system is Pseudomonas aeruginosa. In words: Antimicrobial activity against 10^6 CFU/ml Pseudomonas aeruginosa PAO1 after 24 hrs by time-kill assay.
In assay [8] the test system is Pseudomonas aeruginosa. The experiment in a line: Bactericidal activity against 10^6 CFU/ml Pseudomonas aeruginosa URMC1 at >= 16 times MIC up to 30 mins by time-kill assay.
For assay [9], the system named is Pseudomonas aeruginosa. In words: Antimicrobial activity against 10^6 CFU/ml Pseudomonas aeruginosa PAO1 at 2 to 16 mg/L after 24 hrs by time-kill assay.
Assay [10] has as its system Pseudomonas aeruginosa. In words: Antimicrobial activity against 10^8 CFU/ml Pseudomonas aeruginosa PAO1 at 4 to 32 mg/L after 24 hrs by time-kill assay.
Assay [11] has as its system Pseudomonas aeruginosa. In words: Bactericidal activity against 10^6 CFU/ml Pseudomonas aeruginosa URMC2 at >= 16 times MIC up to 30 mins by time-kill assay.
Assay [12] deals with Pseudomonas aeruginosa. In words: Bactericidal activity against 10^6 CFU/ml Pseudomonas aeruginosa PAO1 at 1 to 4 times MIC up to 1 hr by time-kill assay.
Assay [13] deals with Pseudomonas aeruginosa. The experiment in a line: Antimicrobial activity against 10^9 CFU/ml Pseudomonas aeruginosa PAO1 at 4 to 128 mg/L after 24 hrs by time-kill assay.
For assay [14], the system named is Pseudomonas aeruginosa. In words: Antimicrobial activity against 10^6 CFU/ml Pseudomonas aeruginosa URMC2 after 24 hrs by time-kill assay.
The subject of assay [15] is Pseudomonas aeruginosa. The experiment in a line: Bactericidal activity against 10^6 CFU/ml Pseudomonas aeruginosa URMC1 at 1 to 4 times MIC up to 1 hr by time-kill assay.
For assay [16], the system named is Pseudomonas aeruginosa. The experiment in a line: Bactericidal activity against 10^6 CFU/ml Pseudomonas aeruginosa PAO1 at >= 16 times MIC up to 30 mins by time-kill assay.
Assay [17] deals with Pseudomonas aeruginosa. The experiment in a line: Antimicrobial activity against Pseudomonas aeruginosa assessed as destabilization of bacterial outer membrane by receptor occupancy assay.
Assay [18] has as its system Pseudomonas aeruginosa. The experiment in a line: Antimicrobial activity against 10^9.4 CFU/ml Pseudomonas aeruginosa PAO1 at 64 mg/L after 24 hrs by time-kill assay.
Assay [19] relates to Pseudomonas aeruginosa. The experiment in a line: Antimicrobial activity against 10^9 CFU/ml Pseudomonas aeruginosa PAO1 after 24 hrs by time-kill assay.
The test system of assay [20] is Pseudomonas aeruginosa. In words: Antimicrobial activity against 10^9 CFU/ml Pseudomonas aeruginosa URMC2 after 24 hrs by time-kill assay.
The subject of assay [21] is Pseudomonas aeruginosa. In words: Antimicrobial activity against 10^8 CFU/ml Pseudomonas aeruginosa URMC1 after 24 hrs by time-kill assay.
For assay [22], the system named is Pseudomonas aeruginosa. In words: Antimicrobial activity against 10^8 CFU/ml Pseudomonas aeruginosa URMC2 after 24 hrs by time-kill assay.
The subject of assay [23] is Pseudomonas aeruginosa. The experiment in a line: Antimicrobial activity against 10^8 CFU/ml Pseudomonas aeruginosa PAO1 after 24 hrs by time-kill assay.
Assay [24] deals with Pseudomonas aeruginosa. In words: Antimicrobial activity against 10^9 CFU/ml Pseudomonas aeruginosa URMC1 after 24 hrs by time-kill assay.

The source made the active and inactive calls. No cut-off for these calls is given here.

As for COLISTIN [listing 1 of 2 here], the log10CFU/ml in the assay with Pseudomonas aeruginosa [1] is > 5; in the assay on Pseudomonas aeruginosa [2], 5; in the assay on Pseudomonas aeruginosa [6] it was > 5; with Pseudomonas aeruginosa [18] it was > 5. Besides, the Activity result in the assay on Pseudomonas aeruginosa [3] was “Dose-dependent effect”; in the assay on Pseudomonas aeruginosa [7] it was “Dose-dependent effect”; in the assay with Pseudomonas aeruginosa [14] it was “Dose-dependent effect”; in the assay with Pseudomonas aeruginosa [17], 53.7%. Moreover, the result with Pseudomonas aeruginosa [4], in the assay with Pseudomonas aeruginosa [8], with Pseudomonas aeruginosa [11], in the assay on Pseudomonas aeruginosa [12], with Pseudomonas aeruginosa [15] and in the assay on Pseudomonas aeruginosa [16] was Active. Moreover, the outcome in the assay with Pseudomonas aeruginosa [5], with Pseudomonas aeruginosa [9], in the assay on Pseudomonas aeruginosa [10] and with Pseudomonas aeruginosa [13] was inactive.
For COLISTIN [listing 2 of 2 here], the EC50 – broadly, the concentration giving half of the maximal effect – in the assay with Pseudomonas aeruginosa [19] turned out to be 6.22 µg/mL; in the assay on Pseudomonas aeruginosa [3] it was 0.736 µg/mL; with Pseudomonas aeruginosa [7], 0.777 µg/mL; with Pseudomonas aeruginosa [20], 3.5 µg/mL; in the assay with Pseudomonas aeruginosa [21], 2.69 µg/mL; with Pseudomonas aeruginosa [22] it was 2.56 µg/mL. Besides, the results for the EC50 in the assay on Pseudomonas aeruginosa [23], with Pseudomonas aeruginosa [14] and in the assay with Pseudomonas aeruginosa [24] were 1.49 µg/mL, 1.15 µg/mL and 4.62 µg/mL, respectively.

These data come from ChEMBL document CHEMBL1255463, “Attenuation of colistin bactericidal activity by high inoculum of Pseudomonas aeruginosa characterized by a new mechanism-based population pharmacodynamic model” (Antimicrob Agents Chemother, 2010).
